The values that follow come from patent publication US20120053130A1, “COMPOSITION FOR ENHANCING ABSORPTION OF A DRUG AND METHOD” (Bristol-Myers Squibb Company, priority 2010, published 2012).

The subject of data set [1] is Calu-3 cells. Kind of data set: Alamar Blue acute cytotoxicity assay. Type of data set: cell-based, human. The text has this: FIG. 2 depicts an Alamar Blue Assay—Black bar indicates the % of the cell survival after 2 hrs treatment of LPC at 0-0.25%; gray bar indicates the combination of LPC with 0.5% of C971P.
This assay is based on the ability of live cells to enzymatically reduce Alamar blue dye which indicates the relative percentage of cells that survive the exposure to the various treatments. Calu-3 cells exposed to buffer for 2 hr were used as the positive control with 100% cell survival.
(Alamar Blue is a resazurin reagent that responds to reducing activity.)

Data set [2] can be described thus: DDAVP permeation across Calu-3 cells on Transwell filters. Format: in vitro ADME, human. The settings on record: human. The text has this: (§1) Papp values are labeled on top of the bars.
(§2) Inclusion of LPC further boosted the transport of DDAVP.

Data set [3] deals with Calu-3 cells. The data set is described as above. Type of data set: in vitro ADME, human. The settings on record: for DDAVP Permeability: Phosphatidylcholine (Lecithin) Treatment.
Description: as §1, §2

The subject of data set [4] is Calu-3 cells. Kind of data set: TEER measurement (cell integrity and reversibility). Format: cell-based, human. Conditions: for TEER after 2 hr (% initial): Phosphatidylcholine (Lecithin) Treatment. The source says:
The asterisk (delete scatters with) (*) represent (delete marker present) those samples where TEER recovered to the original level within 12 hrs after washout of the treatment.
Transepithelial electrical resistance (TEER) measures the integrity of the epithelial barrier. […] Return of the TEER values to initial levels indicates recovery to baseline barrier properties. TEER measurements were done in confluent highly resistant Calu-3 cells cultured in Transwell filters with handheld STX-2 electrodes connected to EVOM Voltohmmeter. […] After the removal of apical treatment, TEER recovered to the original values.

Data set [5] is described as follows: Intra-nasal DADLE absorption in rabbits. Type of data set: in vivo, rabbit. The settings on record: DADLE 1 mg/kg intra-nasal via syringe microsprayer. The text has this: Intra-nasal delivery of the model pentapepdide DADLE in water, C971P, LPC or C971P/LPC formulation was studied in rabbits. […] The C971P/LPC formulation enhanced DADLE absorption by >50% compared to LPC alone.

In the case of `CCCCCCCCCC(=O)[O-].[Na+]` [sodium caprate], the “effect of Carbopol 971P on acute cytotoxicity of the enhancer” value in the data set on Calu-3 cells [1] (Alamar Blue cytotoxicity assay in Calu-3 cells) is on record as “failed to reduce the acute cytotoxicity”.
Turning to `NC(=O)CC[C@@H]1NC(=O)[C@H](Cc2ccccc2)NC(=O)[C@H](Cc2ccc(O)cc2)NC(=O)CCSSC[C@@H](C(=O)N2CCC[C@H]2C(=O)N[C@H](CCCN=C(N)N)C(=O)NCC(N)=O)NC(=O)[C@H](CC(N)=O)NC1=O` [DDAVP, 1 deamino-8-D-arginin-vasopressin], the Papp A→B (usually the apparent permeability from the apical to the basolateral side of a cell layer) in data set [2] came out at 0.04 ± 0.003 ×10⁻⁶ cm/s.
As for “Phosphatidylcholine [Phosphatidylcholine (Lecithin)]”, the “DDAVP permeability enhancement and TEER drop, result in words” value with Calu-3 cells [3] (Calu-3 cells, TEER 2 hr after exposure) is reported as “failed to show any measurable enhancement or TEER drop”. In addition, the “DDAVP Permeability” value in the data set with Calu-3 cells [3] (1 mM) is 0.045 ± 0.003 ×10⁻⁶ cm/s; with Calu-3 cells [3] (2 mM), 0.044 ± 0.003 ×10⁻⁶ cm/s; in the data set with Calu-3 cells [3] (5 mM), 0.044 ± 0.004 ×10⁻⁶ cm/s. In addition, the “TEER after 2 hr (% initial)” value in the data set on Calu-3 cells [4] (1 mM), in the data set on Calu-3 cells [4] (2 mM) and in the data set on Calu-3 cells [4] (5 mM) was “No change” each time.
Regarding L-α-lysophosphatidylcholine [LPC], the cell survival result in the data set with Calu-3 cells [1] (0.05% LPC, 2 hr, without or with 0.5% C971P) is given as “About 82%”; with Calu-3 cells [1] (0.1% LPC, 2 hr, without or with 0.5% C971P), 41%. Also, the “cell survival, result in words” value in the data set on Calu-3 cells [1] (LPC 0-0.25%, 2 hr, without or with 0.5% C971P) is “dose-dependent reduction in survival”. Further, the “change in TEER on treatment” value in the data set on Calu-3 cells [4] (2 hours of treatment) is “dramatic drop in TEER”. Besides, the “DADLE exposure relative to water control” value in data set [5] was 2.4 times.
